Results: paper PMC4467398, “Preclinical antitumor activity of ST7612AA1: a new oral thiol-based histone deacetylase (HDAC) inhibitor” (Oncotarget, 2014)
Where two headings read alike, the source gives them in different places.

Key:
[1] = tested on: Ovarian cancer SKOV-3; test: In vitro proliferation assay (sulphorodamine B); assay type: cell-based; settings: Homo sapiens, SK-OV-3, 72 h, mean ± S.E.M.
[2] = tested on: GCB-DLBCL cell lines; test: In vitro proliferation assay, lymphoma panel (summary); assay type: cell-based; settings: Homo sapiens
Protocol: (§1) Anti-proliferative activity was first assessed on a panel of cell lines derived from solid tumors and hematological cancers and then on a large panel of cell lines derived from mature B-cell lymphomas. […] Lymphoma cells were seeded in 96-wells tissue culture plates in complete medium and were exposed to increasing concentrations of ST7612AA1 for 48 or 72 h; the anti-proliferative activity was assessed using 3-(4,5-dimethylthiazol-2-yl)-2,5-diphenyltetrazolium bromide (MTT). The drug potency was evaluated by means of the “ALLFIT” computer program and defined as IC50 (drug concentration required for 50% inhibition of cell survival).

[3] = tested on: mature B cell lymphomas; test: as above; assay type: cell-based; settings: Homo sapiens, different mature B cell lymphomas
Protocol: as §1

[4] = tested on: mantle cell lymphoma (MCL) cell lines; test: as above; assay type: cell-based; settings: Homo sapiens
Protocol: as §1

[5] = tested on: ABC-DLBCL cell lines; test: as above; assay type: cell-based; settings: Homo sapiens
Protocol: as §1

[6] = tested on: splenic marginal zone lymphoma (SMZL) cell lines; test: as above; assay type: cell-based; settings: Homo sapiens
Protocol: as §1

[7] = tested on: Breast cancer MDA-MB436; test: In vitro proliferation assay (sulphorodamine B); assay type: cell-based; settings: Homo sapiens, MDA-MB-436, 72 h, mean ± S.E.M.
[8] = PK sampling and analysis after a single oral dose of ST7612AA1 (plasma, LC-MS/MS); assay type: in vivo, CD1 mice; settings: single oral dose of 120 mg/kg; limit of quantification 25 ng/mL
Protocol: CD1 nude mice were used. Male mice were treated with a single dose of ST7612AA1 at 120 mg/10 mL/kg p.o., using 5% Solutol HS 15 in water for injection as vehicle. Blood samples were collected at 0.25, 0.5, 1, 2, 4 and 6 h post treatment from 5 animals per time point. Levels of ST7612AA1 and ST7464AA1 were determined in plasma by quantitative LC-MS/MS having a limit of quantification of 25 ng/mL. The PK parameters Cmax (maximum plasma concentration), Tmax (time of maximum plasma concentration), Clast (last quantifiable concentration), Tlast (time of last quantifiable plasma concentration), AUClast (area under the concentration vs time curve from 0 to Tlast), AUCINF (area under the concentration vs time curve from 0 to infinity), T1/2 (terminal half-life), CL/F (apparent systemic clearance) and Vz/F (apparent terminal volume of distribution) were derived from the analyte plasma concentration vs time data according to a model independent approach for sparse data sampling by using Phoenix WinNonlin® ver. 6.3 software (Pharsight, Cetara).

[9] = tested on: Colon cancer HCT-116 xenograft; test: In vivo xenograft model, oral ST7612AA1; design: species or system nude mice; settings: 60 mg/10 mL/kg oral, Qdx5/wx3w
Protocol: (§2) Experiments on solid tumor and acute leukemia in vivo models were carried out at Sigma-Tau (Rome, Italy) using female athymic nude mice, 5-6 weeks-old (Harlan Laboratories, Udine, IT). Mice were maintained in laminar flow rooms with constant temperature and humidity in according to the NIH guidelines. The following human tumor xenograft models were used for antitumor activity studies: HCT116 derived from colon carcinoma), MV4;11 from acute myeloid leukaemia (AML), SKOV-3 from ovarian carcinoma, and NCI-H1975 from non-small cell lung cancer (NSCLC). Exponentially growing tumor cells were s.c. inoculated (5×10^6/mouse) in the right flank of nude mice. Groups of eight mice/group were employed to assess antitumor activity. MDA-MB436 breast carcinoma (3×10^6 cells/0.1 mL of M199/Matrigel GFR 50:50, vol/vol solution) was inoculated in mammary fat pad (mfp). Drug treatments were started from 3 to 11 days after tumor injection, depending on the tumor growth of the xenografted cancer model. ST7612AA1 was given daily for five days per week (qdx5/w). Tumor growth was followed by measurements of tumor diameters with a Vernier caliper. Tumor volume (TV) was calculated using the formula: TV (mm^3) = [d^2 x D]/2, where d and D are the shortest and the longest diameter, respectively. The efficacy of the drug treatment was assessed as: TV inhibition percentage (TVI%) in treated versus control mice, calculated as: TVI%=100-(mean TV treated/mean TV control x100). When tumors reached a volume of 500-1000 mm^3, mice were sacrificed by cervical dislocation. To examine the possible toxicity of treatment, body weight was recorded throughout the study. BWL% (body weight loss) was calculated as 100 – (mean BWdayx/mean BWday1x100), where day 1 is the first day of treatment and day x is any day after (maximum BWL%). DT as doubling time of control tumors was also evaluated.

[10] = tested on: NSCLC NCI-H1975 xenograft; test: In vivo xenograft model, oral ST7612AA1; design: species or system nude mice; settings: 60 mg/10 mL/kg oral, Qdx5/wx2w
Protocol: as §2

[11] = tested on: Acute myeloid leukemia MV4;11 xenograft; test: In vivo xenograft model, oral ST7612AA1; design: species or system nude mice; settings: 60 mg/10 mL/kg oral, Qdx5/wx3w
Protocol: as §2

[12] = tested on: Breast cancer MDA-MB436 xenograft; test: In vivo xenograft model, oral ST7612AA1; design: species or system nude mice; settings: 60 mg/10 mL/kg oral, Qdx5/wx4w
Protocol: as §2

[13] = tested on: Ovarian cancer SKOV-3 xenograft; test: In vivo xenograft model, oral ST7612AA1; design: species or system nude mice; settings: 60 mg/10 mL/kg oral, Qdx5/wx4w
Protocol: as §2

[14] = tested on: Breast cancer MDA-MB231; test: In vitro proliferation assay (sulphorodamine B); assay type: cell-based; settings: Homo sapiens, MDA-MB-231, 72 h, mean ± S.E.M.

CC(=O)SCCCCC[C@H](NC(=O)[C@H]1CCC(=O)N1)C(=O)Nc1ccccc1 [ST7612AA1]
IC50 [1]: 380 nM | IC50 ([2]; read-out: IC50 range): 46 to 2660 nM | IC50 ([2]; read-out: median IC50): 597 nM | IC50 ([3]; read-out: IC50 range): 46 to 2660 nM | IC50 ([3]; read-out: median IC50): 375 nM | IC50 ([4]; read-out: IC50 range): 248 to 553 nM | IC50 ([4]; read-out: median IC50): 433 nM | IC50 ([5]; read-out: IC50 range): 101 to 805 nM | IC50 ([5]; read-out: median IC50): 257 nM | IC50 ([6]; read-out: IC50 range): 102 to 257 nM | IC50 ([6]; read-out: median IC50): 119 nM | IC50 [7]: 180 ± 10 nM | ST7612AA1 in plasma after oral administration [8]: not detected | BWL% max ([9]; maximum body weight loss): 1% | Lethal toxicity ([9]; mice dead from toxicity/total): 0/8 | BWL% max ([10]; maximum body weight loss): 4% | Lethal toxicity ([10]; mice dead from toxicity/total): 0/8 | BWL% max ([11]; maximum body weight loss): 4% | Lethal toxicity ([11]; mice dead from toxicity/total): 0/8 | BWL% max ([12]; maximum body weight loss): 4% | Lethal toxicity ([12]; mice dead from toxicity/total): 0/8 | BWL% max ([13]; maximum body weight loss): 1% | Lethal toxicity ([13]; mice dead from toxicity/total): 0/8 | IC50 [14]: 230 nM
